Laboratory results reported in patent publication US20220127297A1, “Novel Antibacterial 3"-Derivatives Of 4,6-Disubstituted 2,5-Dideoxystreptamine Aminoglycoside Antibiotics” (AGILeBiotics B.V., priority 2018, published 2022).
Converted amounts (≈) assume the structure as drawn.

Key:
[1] = tested on: K. pneumoniae ATCC BAA-2524; experiment: MIC 90, resistant ATCC strains of the ESKAPE panel; format: cell-based; settings: Klebsiella pneumoniae, ATCCBAA2524, OXA-48
Source text: (§1) 3.3 Protocol for MIC Determination (ATCC Strains)
(§2) Tested reference compounds. Amikacin sulfate (Cat. No. 01693, Chem-Impex), Gentamicin sulfate (Cat. No. G4918, Sigma Aldrich), Azithromycin (Cat. No. 1046056, USP), Ceftazidime Pentahydrate (Cat. No. 1098130, USP), Ciprofloxacin (Cat. No. 1134313, USP), Meropenem (Cat. No. 1392454, USP), Rifampicin (Cat. No. R0079, TCI), Tobramycin (Cat. No. 1667508, USP), Vancomycin (Cat. No. 1709007 USP).
(§3) Microbial strains. Staphylococcus aureus ATCC 29213, Staphylococcus aureus ATCC BAA-1717, Escherichia coli ATCC BAA-1025, Klebsiella pneumoniae ATCC BAA-1705, Klebsiella pneumoniae ATCC BAA-2524, Pseudomonas aeruginosa ATCC 27853, Pseudomonas aeruginosa ATCC BAA-2108, Acinetobacter baumannii ATCC BAA-1800.
(§4) Culture media and equipment. BBL™ Mueller Hinton Broth (REF 275730, Lot. 7009699, Becton Dickinson), Mueller Hinton Agar 2 (Ref. No. 97580-500G-F, Lot. No. BCBV4646, Sigma), Dulbecco's Modified Eagle's Medium (DMEM) (Cat. No. 41966-029, Gibco), Minimum Essential Medium (MEM) (Cat. No. 42360-024, Gibco), Fetal bovine serum (FBS) (Cat. No. F7524, Sigma), Non-essential amino acids (NEAA) (100×, Cat. No. 11140-035, Gibco), Sodium Pyruvate (100 mM, 100×, Cat. No. 11360-039, Gibco), Staurosporine (Cat. No. B50188, Biotrend), Cellstar 96-well plates U-bottom (Cat. No. 650180, Lot. No. E14123EB, Greiner Bio-one), CellTiter-Glo (Cat. No. G7573, Promega), 96-well plate V-bottom (Cat. No. 651201, Greiner), 96-well clear plate, U-bottom, (Cat. No. 650180, Greiner), 96-well white plate with clear bottom (Cat. No. 655098, Greiner), 96-well deep well plate 1 mL (Cat. No. 278606, Nunc), Sodium Pyruvate (100 mM, 100×, Gibco, Cat #11360-039), Incubator (Binder), Laminar flow (Thermo Scientific), BioPhotometer (Eppendorf); DEN-1B (McFarland Densitometer, Biosan); McFarland standards (polymer microparticle suspension, Biosan).
(§5) Compound preparation. The test compounds and reference antibiotics were prepared according to CLSI guidelines (Clinical and Laboratory Standards Institute (CLSI); Methods for dilution antimicrobial susceptibility tests for bacteria that grow aerobically; approved standard—ninth edition, M07-A9, Vol. 32, No. 2, 2012) as 5 mg/mL stock solutions in DMSO. Out of these DMSO solutions, 43.5 μL was transferred to 1656.5 μL of MH media in a deep well plate. Out of these working solutions 100 μL was transferred to wells in the third column of 96-well plates. Plates were previously filled with 50 μL of MH media in all wells except for the wells in the third column. After compound and antibiotic addition, 50 μL was transferred from the third to the fourth column, then from the fourth to the fifth and so on. In this manner, the compounds and antibiotics were plated in 96-well plate in serial two-fold dilutions giving a final concentration range of 64-0.125 μg/mL.
(§6) Preparation of microorganisms. Designations used for clinical isolates were from the Fidelta strain collection bank. Microorganisms used were all revived from skim milk storage at −70° C. by plating them on MH agar plates. The following day the single colony of each microorganism was again streaked on fresh agar plates. The next day, using the direct colony suspension method, broth solutions that achieve turbidity equivalent to 0.5 McFarland standard for each microorganism were prepared. […] Out of these suspensions, actual inoculums were prepared by diluting them 100× with MH media giving a final microorganism count of 2-8×10^5 CFU/mL. For each strain of microorganisms, 20 mL of these inoculum solutions were prepared. From the second to the twelfth column of 96-well plates, 50 μL of these solutions were transferred per well. To the first column, 50 μL per well of pure growth media was added. In this manner the first column was used as sterility control of media, the second column was used as control of microorganism's growth and the rest of the plate was used for MIC determination. All plates were incubated for 16-24 h at 37° C. […]

[2] = tested on: K. pneumoniae ATCC BAA-1705; experiment: MIC 90, resistant ATCC strains of the ESKAPE panel; format: cell-based; settings: Klebsiella pneumoniae, ATCCBAA1705, KPC
Source text: as §1, §2, §3, §4, §5, §6

[3] = tested on: S. aureus ATCC BAA-1717; experiment: MIC 90, resistant ATCC strains of the ESKAPE panel; format: cell-based; settings: Staphylococcus aureus, MRSA
Source text: as §1, §2, §3, §4, §5, §6

[4] = tested on: A. baumannii ATCC BAA-1800; experiment: MIC 90, resistant ATCC strains of the ESKAPE panel; format: cell-based; settings: Acinetobacter baumannii, ATCCBAA1800, MDR
Source text: as §1, §2, §3, §4, §5, §6

[5] = tested on: P. aeruginosa ATCC BAA-2108; experiment: MIC 90, resistant ATCC strains of the ESKAPE panel; format: cell-based; settings: Pseudomonas aeruginosa, ATCCBAA2108, MDR
Source text: as §1, §2, §3, §4, §5, §6

[6] = tested on: Klebsiella pneumoniae ATCC 43816; experiment: Murine neutropenic thigh model of infection; format: in vivo, male CD-1 mice; settings: for Avg. Log CFU/g thigh: 24 h post infection; for survival rate: first study, vehicle group 50% mortality; for Avg. Log CFU/g: thigh, 24 hours post infection
Experimental: 4.1 Murine Neutropenic Thigh Model of Infection (Kiebsiella Pneumoniae ATCC 43816)
A comparator antibiotic (meropenem; Cat. No. 1392454, USP) was used during both studies.
During the first study ABX5006 and ABX5020 were tested at a dose of 64 mg/kg (group 5 for ABX5006, group 8 for ABX5020), 16 mg/kg (group 4 for ABX5006, group 7 for ABX5020) and of 4 mg/kg (group 3 for ABX5006, group 6 for ABX5020).
During a second study ABX5026 and ABX5039 were tested at a dose of 4 mg/kg (group 5 for ABX5026, group 8 for ABX5039), 1 mg/kg (group 4 for ABX5026, group 7 for ABX5039) and of 0.25 mg/kg (group 3 for ABX5026, group 6 for ABX5039).
Animals were dosed subcutaneously (10 mL/kg) twice with 8 h interval. […] A CFU count below limit of detection (LOD=1.0×10^2 CFU/mL) was substituted with the value 0 in order to perform statistical analysis.
Inoculum preparation for intramuscular infection. The strain was streaked out onto MH agar.

[7] = Log CFU/g thigh, dose 4 mg/kg SC BID
[8] = Log CFU/g thigh, dose 16 mg/kg SC BID
[9] = Log CFU/g thigh, dose 64 mg/kg SC BID
[10] = dose 0.25 mg/kg, SC, BID, Avg. Log CFU/g thigh vs vehicle
[11] = dose 1 mg/kg, SC, BID, Avg. Log CFU/g thigh vs vehicle
[12] = dose 4 mg/kg, SC, BID, Avg. Log CFU/g thigh vs vehicle

SMILES	MIC90 [1] [µg/mL]	MIC90 [2] [µg/mL]	MIC90 [3] [µg/mL]	MIC90 [4] [µg/mL]	MIC90 [5] [µg/mL]	Change from vehicle group [6, 7]	Change from vehicle group [6, 8]	Change from vehicle group [6, 9]	CFU count reduction in comparison to the vehicle control group ([6]; dose 4 mg/kg SC BID) [log 10]	Avg. Log CFU/g thigh ([6]; dose 4 mg/kg SC BID) [Log CFU/g]	Avg. Log CFU/g thigh ([6]; dose 16 mg/kg SC BID) [Log CFU/g]	Avg. Log CFU/g thigh ([6]; dose 64 mg/kg SC BID) [Log CFU/g]	survival rate [6] [%]	Change from vehicle group [6, 10]	Avg. Log CFU/g ([6]; dose 0.25 mg/kg, SC, BID) [Log CFU/g]	CFU count reduction in comparison to the vehicle control group ([6]; dose 1 mg/kg SC BID) [log 10]	Change from vehicle group [6, 11]	Avg. Log CFU/g ([6]; dose 1 mg/kg, SC, BID) [Log CFU/g]	Change from vehicle group [6, 12]	Avg. Log CFU/g ([6]; dose 4 mg/kg, SC, BID) [Log CFU/g]
N=C(N)NC1[C@@H](O)C(OC2[C@@H](F)[C@H](O[C@H]3OC(CN)[C@@H](O)[C@H](O)C3N)C(N)C[C@H]2NC(=O)[C@@H](O)CCN)O[C@H](CO)[C@H]1O (stereo partly shown) [ABX4006, KanaB-AHB-F-Gua]	< 0.125	2 (≈ 3.18 µM)	4 (≈ 6.36 µM)	16 (≈ 25.5 µM)	16 (≈ 25.5 µM)	–	–	–	–	–	–	–	–	–	–	–	–	–	–	–
N=C(N)NC1C(O)[C@@H](CO)OC(OC2C(F)[C@H](O[C@H]3OC(CN)[C@@H](O)CC3N)C(N)C[C@H]2NC(=O)[C@@H](O)CCN)[C@@H]1O (stereo partly shown) [ABX5006, Tobra-AHB-F-Gua]	< 0.125	2 (≈ 3.26 µM)	0.5 (≈ 0.816 µM)	16 (≈ 26.1 µM)	4 (≈ 6.53 µM)	−7.05	−8.36	−9.13	7	2.47	1.15	0.38	100	–	–	–	–	–	–	–
N=C(NCCN)NC1C(O)[C@@H](CO)OC(OC2C(F)[C@H](O[C@H]3OC(CN)[C@@H](O)CC3N)C(N)C[C@H]2NC(=O)[C@@H](O)CCN)[C@@H]1O (stereo partly shown) [ABX5020, Tobra-AHB-F-Gua-2-amino-ethyl]	0.5 (≈ 0.763 µM)	8 (≈ 12.2 µM)	0.25 (≈ 0.381 µM)	32 (≈ 48.8 µM)	2 (≈ 3.05 µM)	−8.04	−8.14	−9.32	–	1.47	1.37	0.19	100	–	–	–	–	–	–	–
N=C(NC[C@@H]1CCCN1)NC1[C@@H](O)C(OC2[C@@H](F)[C@H](O[C@H]3OC(CN)[C@@H](O)CC3N)C(N)C[C@H]2NC(=O)[C@@H](O)CCN)O[C@H](CO)[C@H]1O (stereo partly drawn) [ABX5026, Tobra-AHB-F-Gua (S) pyrrolidine-2-yl-methyl]	0.5 (≈ 0.719 µM)	4 (≈ 5.75 µM)	0.5 (≈ 0.719 µM)	32 (≈ 46 µM)	8 (≈ 11.5 µM)	–	–	–	–	–	–	–	–	1.80	7.98	> 6	6.44	3.34	7.56	2.22
N=C(NCCO)NC1[C@@H](O)C(OC2[C@@H](F)[C@H](O[C@H]3OC(CN)[C@@H](O)CC3N)C(N)C[C@H]2NC(=O)[C@@H](O)CCN)O[C@H](CO)[C@H]1O (stereo partly shown) [ABX5029, Tobra-AHB-F-Gua 2-hydroxy-ethyl]	0.25 (≈ 0.381 µM)	4 (≈ 6.09 µM)	0.5 (≈ 0.761 µM)	16 (≈ 24.4 µM)	4 (≈ 6.09 µM)	–	–	–	–	–	–	–	–	–	–	–	–	–	–	–
CNCCNC(=N)NC1[C@@H](O)C(OC2[C@@H](F)[C@H](O[C@H]3OC(CN)[C@@H](O)CC3N)C(N)C[C@H]2NC(=O)[C@@H](O)CCN)O[C@H](CO)[C@H]1O (stereo partly shown) [ABX5038, Tobra-AHB-F-Gua 2-(methylamino)ethyl]	0.5 (≈ 0.747 µM)	8 (≈ 11.9 µM)	0.5 (≈ 0.747 µM)	32 (≈ 47.8 µM)	4 (≈ 5.97 µM)	–	–	–	–	–	–	–	–	–	–	–	–	–	–	–
N=C(NC[C@@H]1CCNC1)NC1[C@@H](O)C(OC2[C@@H](F)[C@H](O[C@H]3OC(CN)[C@@H](O)CC3N)C(N)C[C@H]2NC(=O)[C@@H](O)CCN)O[C@H](CO)[C@H]1O (stereo partly drawn) [ABX5039, Tobra-AHB-F-Gua (R) pyrrolidine-3-ylmethyl]	0.5 (≈ 0.719 µM)	4 (≈ 5.75 µM)	0.5 (≈ 0.719 µM)	16 (≈ 23 µM)	8 (≈ 11.5 µM)	–	–	–	–	–	–	–	–	0.70	9.08	> 4	4.71	5.07	7.55	2.23
N=C(NC[C@@H]1CNCCO1)NC1[C@@H](O)C(OC2[C@@H](F)[C@H](O[C@H]3OC(CN)[C@@H](O)CC3N)C(N)C[C@H]2NC(=O)[C@@H](O)CCN)O[C@H](CO)[C@H]1O (stereo partly drawn) [ABX5040, Tobra-AHB-F-Gua (S) morpholin-2-yl methyl]	0.5 (≈ 0.702 µM)	8 (≈ 11.2 µM)	0.5 (≈ 0.702 µM)	32 (≈ 45 µM)	8 (≈ 11.2 µM)	–	–	–	–	–	–	–	–	–	–	–	–	–	–	–
N=C(NC[C@H]1CCNC1)NC1[C@@H](O)C(OC2[C@@H](F)[C@H](O[C@H]3OC(CN)[C@@H](O)CC3N)C(N)C[C@H]2NC(=O)[C@@H](O)CCN)O[C@H](CO)[C@H]1O (stereo partly drawn) [ABX5042, Tobra-AHB-F-Gua (S) pyrrolidine-3-ylmethyl]	0.5 (≈ 0.719 µM)	4 (≈ 5.75 µM)	0.5 (≈ 0.719 µM)	32 (≈ 46 µM)	8 (≈ 11.5 µM)	–	–	–	–	–	–	–	–	–	–	–	–	–	–	–
NCC[C@H](O)C(=O)N[C@@H]1C[C@H](N)[C@@H](O[C@H]2O[C@H](CN)[C@@H](O)[C@H](O)[C@H]2O)[C@H](O)[C@H]1O[C@H]1O[C@H](CO)[C@@H](O)[C@H](N)[C@H]1O [Amikacin, amikacin, reference compound]	0.5 (≈ 0.854 µM)	32 (≈ 54.6 µM)	4 (≈ 6.83 µM)	64 (≈ 109 µM)	16 (≈ 27.3 µM)	–	–	–	–	–	–	–	–	–	–	–	–	–	–	–
